Consider two sequences from patent publication US12295997B2, “Prostate neoantigens and their uses” (Janssen Biotech, Inc., priority 2020, dated 2025).

The subject of experiment [1] is CD8+ and CD4+ T cells (autologous CD3+ Pan-T cells isolated from human normal PBMCs). Briefly: Exogenous autologous normal donor restimulation assay (15-mer overlapping peptide pools on CD1c+ dendritic cells, TNFα/IFNγ flow cytometry). Type of experiment: cell-based. As to conditions: Table 25, 15-mer overlapping peptide pool; for Maximum Fold Change Over Background CD4+ cells: TNFα+IFNγ+ CD4+ T cells; for Maximum Fold Change Over Background CD4+ cells / Maximum Fold Change Over Background CD8+ cells: highest fold change over negative control across normal donors; for Maximum Fold Change Over Background CD8+ cells: TNFα+IFNγ+ CD8+ T cells; for Maximum Frequency of TNFα/IFNγ Double Positive CD4+ T cells / Maximum Frequency of TNFα/IFNγ Double Positive CD8+ T cells: highest frequency across normal donors. The procedure, abridged:
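Readout was intracellular TNFα/IFNγ flow cytometry on live CD3+ CD8+ and CD4+ cells after day-11 peptide restimulation. Stimulators were CD1c+ dendritic cells loaded with overlapping 15-mer peptide pools (2.5–10 μg/mL), irradiated, and cultured 12 days with autologous normal-donor Pan-T cells plus IL-15/IL-2. A response counted when ≥3-fold over DMSO control and at least 0.01%.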

For experiment [2] the test system is unchanged. In words: Endogenous autologous normal donor restimulation assay (Ad5-transduced CD1c+ dendritic cells, TNFα/IFNγ flow cytometry). It is filed as cell-based. The conditions noted are these: Table 27, endogenous expression, peptide pool restimulation, highest across sixteen normal donors. The procedure:
CD1c+ Dendritic Cells (DC) isolated from human normal PBMCs were thawed using media (IMDM (Gibco) supplemented with glutamine, HEPES, 5% human serum (Sigma), and 1×Pen-Strep). DC cells were resuspended in media supplemented with IL-4 (Peprotech, 80 ng/mL) and GM-CSF (Gibco, 80 ng/mL), plated in 6 well microplates, and rested overnight at 37° C. (5% CO2). The following day, DC cells were counted and plated in a 96 well round bottom microplate at a concentration of 30,000 viable cells per well. Ad5 vectors (Vector Biolabs) were dilute in media to an MOI (Multiplicity Of Infection) of 5000 based on Plaque Forming Units. Ad5 vectors for the CEF pool and a “null” were used as controls. DCs were transduced with Ad5 vectors overnight at 37° C. (5% CO2). The following day, the Ad5 vectors were washed off the plate by three sequential centrifugation/aspiration steps using sterile Phosphate Buffered Saline. After the final wash, transduced DCs were resuspended in 100 μL media. Autologous CD3+ Pan-T cells isolated from human normal PBMCs were thawed using media. Pan-T cells were added to the irradiated DCs at 300,000 viable cells per well (100 μL/well). Human IL-15 (Peprotech) was added to all wells at final concentration of 10 ng/mL.
Plates were incubated at 37° C. (5% CO2) for a total of 12 days. Media was refreshed every 2-3 days with IL-15 (10 ng/mL final concentration) and IL-2 (R&D systems, 10 IU/mL final concentration). On day 11 lyophilized peptides (15-mer overlapping peptides) were solubilized in 100% DMSO and pooled by neoantigen to between 5 mg/mL and 20 mg/mL. Neoantigen peptides pools were added to cells for a final concentration of 2.5 μg/mL to 10 μg/mL. CEF Peptide Pool “Plus” (Cellular Technologies, Ltd.) was utilized as a positive control and DMSO at the same final concentration as the experimental peptides was utilized as a negative control. Protein Inhibitor Cocktail (eBioscience) was added to every well and plate was incubated overnight at 37° C. (5% CO2).
On day 12, cells were stained for intracellular flow cytometry analysis. The cells were washed with PBS and stained with Live/Dead Fixable Aqua Dead Cell stain (Thermo-Fisher). Following the live/dead stain, cells were blocked using Biotin-Free Fc Receptor Blocker (Accurate Chemical & Scientific Corp). Extracellular cellular flow panel ([…] per well in 50 μL) consisted of CD3 PerCP-Cy5.5 (Biolegend), CD4 BV421 (Biolegend), and CD8 APC-Cy7 (Biolegend). After extracellular staining, cells were fixed using Foxp3/fTranscription Factor Staining Buffer Set (eBioscience) and stained for intracellular proteins (1:50 dilution) using TNFα FITC (R&D Systems) and IFNγ BV785 (Biolegend). Cells were washed and resuspended in stain buffer and analyzed using a BD Celesta flow cytometer.
Flow cytometry cell staining analysis was completed using FlowJo v10. Cells were gated on live, singlet, CD3+ cells. The CD8+ and CD4+ T cells were analyzed for TNFα/IFNγ expression and the frequency of double positive TNFα/IFNγ CD8+ and the frequency of double positive TNFα/IFNγ CD4+ T cells were recorded. Responses were assessed to be positive when the frequency of double positive TNFα/IFNγ CD8+ or TNFα/IFNγ CD4+ T cells due to stimulation with an experimental peptide pool was increased greater than or equal to 3-fold over the DMSO only negative control for that donor and at least 0.01%.
For three of the neoantigens, an Ad5 vector was designed to transduce normal Dendritic cells with the neoantigens. This assay assessed the ability of the endogenously expressed and presented neoantigens to activate autologous T cells following overlapping 15-mer peptide pools restimulation using the endogenous autologous normal donor restimulation assay described in Example 1 utilizing TNFα and IFNγ production by CD8^+ and CD4^+ T cells as a readout. […] Sixteen donors were used to assess endogenous immunogenicity.
Background: Flow cytometry measures light scatter and fluorescence of single cells or particles in a stream.

For “DGHSYTSKVNCLLLQDGFHGCVSITGAAGRRNLSIFLFLMLCKLEFHAC (listed as Homo sapiens) [AS55, SPOCK1 alternative splicing]”, in experiment [1], the “Maximum Fold Change Over Background CD4+ cells” value came to 19.38, the “Maximum Fold Change Over Background CD8+ cells” value is recorded as 1354.17, the “Maximum Frequency of TNFα/IFNγ Double Positive CD4+ T cells” value is on record as 0.310 and the “Maximum Frequency of TNFα/IFNγ Double Positive CD8+ T cells” value was 32.500. Further, in experiment [2], the “Maximum Fold Change Over Background CD4+ cells” value is listed as 3.50, the “Maximum Fold Change Over Background CD8+ cells” value came to 213.88, the “Maximum Frequency of TNFα/IFNγ Double Positive CD4+ T cells” value is 0.063 and the “Maximum Frequency of TNFα/IFNγ Double Positive CD8+ T cells” value is recorded as 2.05.

On to “WKFEMSYTVGGPPPHVHARPRHWKTDR (listed as Homo sapiens) [AS18, NWD1 alternative splicing]”, for which, in experiment [1], the “Maximum Fold Change Over Background CD4+ cells” value is reported as 7.51, the “Maximum Fold Change Over Background CD8+ cells” value is 9.17, the “Maximum Frequency of TNFα/IFNγ Double Positive CD4+ T cells” value came out at 0.053 and the “Maximum Frequency of TNFα/IFNγ Double Positive CD8+ T cells” value was 0.110. In experiment [2], the “Maximum Fold Change Over Background CD4+ cells” value is on record as 1.90, the “Maximum Fold Change Over Background CD8+ cells” value was determined as 4.09, the “Maximum Frequency of TNFα/IFNγ Double Positive CD4+ T cells” value worked out at 0.046 and the “Maximum Frequency of TNFα/IFNγ Double Positive CD8+ T cells” value is listed as 0.36.
